Results: patent US20240293416A1, “TREATMENT OF LIVER DISORDERS WITH A THR-ß AGONIST” (Terns Pharmaceuticals, Inc., priority 2021, published 2024)
Several values for one entry are separate records, joined by “and”; a condition that tells them apart may be missing. Equal entries are not always repeated. Entries after “also recorded” stand apart in the source; their conditions may differ.

Tests used:
P-gp = P-gp (Homo sapiens, UniProt P08183); assay: In vitro transporter inhibition, P-gp; assay type: in vitro ADME
[1] = test system: biopsy-confirmed DIO-NASH mice; assay: DIO-GAN NASH mice: liver enzymes, plasma and liver lipids, CK18 M30; assay type: in vivo, C57BL/6JRj mice; details: for plasma triglycerides (TG): end of study
From the text: (§1) C57BL/6JRj male mice (n=138) were fed the Gubra Amylin NASH (GAN) diet (40% fat, 22% fructose, 2% cholesterol [D09100310, Research Diets]) or lean chow diet for 35 weeks before treatment start. Prior to treatment all animals underwent liver biopsy for histological confirmation (steatosis score ≥2 and fibrosis stage ≥1) and stratification using the nonalcoholic fatty liver disease (NAFLD) activity scoring (NAS) and fibrosis staging system. The diet-induced obese mice on GAN diet (DIO-GAN) were randomized to 8 treatment groups (Table 16) based on percent-area of picrosirius red (PSR) staining. […] Vehicle-dosed lean chow-fed controls served as healthy controls (n=10). Mice were maintained on their respective diets (GAN or lean chow) for the duration of the study. Within-subject comparisons (pre-vs. post-treatment) were performed for liver biopsy histopathological scores. Terminal quantitative endpoints included plasma/liver biochemistry, liver histomorphometry, and liver transcriptomic analysis by RNAseq.
Terminal blood was harvested by cardiac puncture from mice anesthetized with isoflurane (2-3%), mixed with anticoagulant, and placed at 4 C prior to centrifugation at 3000×g for 10 minutes. Plasma supernatants were transferred to new tubes and immediately frozen on dry ice and stored at −80 C. Alanine transaminase (ALT), Aspartate transaminase (AST), Alkaline phosphatase (ALP), Triglycerides (TGs), Total Cholesterol (TC), High-density lipoprotein (HDL-c), and Low-density lipoprotein (LDL-c) were measured using commercial kits (Roche Diagnostics) on the Cobas c 501 autoanalyzer according to manufacturer's instructions. Cytokeratin 18 M30 (CK18 M30) was measured from plasma using a commercial ELISA kit (Cusabio) according to the manufacturer's instructions.
Liver samples were homogenized and TGs and TC was extracted in 5% NP-40 by heating (2×) at 90 C. Samples were centrifuged and the TG and TC content was measured in the supernatant using commercial kits (Roche Diagnostics) on the Cobas c 501 autoanalyzer, according to the manufacturer's instructions.

[2] = test system: biopsy-confirmed DIO-NASH mice; assay: DIO-GAN NASH mice: liver histology (NAS, fibrosis, IHC); assay type: in vivo, C57BL/6JRj mice
From the text: as §1
Formalin-fixed paraffin-embedded (FFPE) liver biopsies were prepared by placing liver samples into 10% neutral buffered formalin for ˜24 hours and then transferred to 70% ethanol prior to storage at 4 C. FFPE were placed in the Histokinette to infiltrate prior to embedding in blocks. Biopsy tissues were then cut at 3 μm using a microtome and sections were mounted on slides. Liver sections were stained with Hematoxylin and Eosin (H&E) to assess steatosis, inflammation, and ballooning, and PSR to assess fibrosis. Additionally, slides were processed to detect type I collagen (Col1a1), galectin-3 (Gal-3), and smooth muscle actin (α-SMA) protein expression by immunohistochemistry (IHC). For H&E staining, slides were incubated in Mayer's Hematoxylin (Dako), washed with tap water, stained in Eosin Y solution (Sigma-Aldrich), dehydrated, and coverslipped. For PSR, slides were incubated in Weigert's iron hematoxylin (Sigma-Aldrich), washed in tap water, stained in Picro-sirius red (Sigma-Aldrich), and washed twice in acidified water. Excess water was removed by shaking the slides and the slides were then dehydrated with ethanol, cleared in xylene, and cover-slipped. The NAS and fibrosis stage were scored as described previously (Kleiner et al. 2005). NAS represents the unweighted sum of steatosis, inflammation, and ballooning scores and ranges for 0-8 (Table 17); fibrosis stage ranges from 0 (no fibrosis) to 4 (cirrhosis). For detection of Col1a1, Gal-3 and α-SMA, IHC was performed by standard procedures. Briefly, after antigen retrieval and blocking of endogenous peroxidase activity, slides were incubated with primary antibody (Col1a1: Southern Biotech, Cat. 1310-01; Gal-3: Biolegend, Cat. 125402; α-SMA: Abcam Cat. Ab124964). Primary antibody was detected using a polymeric HRP-linker antibody conjugate. Primary antibody was visualized with DAB as chromogen. Finally, sections were counterstained in hematoxylin and cover-slipped.
The NAFLD Activity Score (NAS) was used to assess the histological effects of treatment. NAS is defined as the unweighted sum of steatosis, inflammation, and ballooning histological scores and can range from 0-8. NAS was determined for each animal before (baseline) and after 12-weeks of treatment at the end of study. NAS was well balanced across treatment groups with an NAS range of 5-6 at baseline in most mice (FIG. 39A). […] In addition, the magnitude of NAS improvement was greater in the combination treatment groups.

[3] = Single ascending dose trial: plasma and urine pharmacokinetics; assay type: in vivo, human; details: for fe (fraction of dose excreted in urine as unmodified Compound 1): fasted, n = 6, mean (% CV)
Experimental: A single-ascending dose clinical trial of Compound 1 (potassium salt) was performed.
PK parameters were estimated via noncompartmental methods using Phoenix WinNonlink (Certara, LP, Princeton, NJ). Concentrations of serum pharmacodynamic (PD) biomarkers apolipoprotein B (Apo B) and sex hormone binding globulin (SHBG) were measured using an immunoassay and serum lipids were determined using spectrophotometry.

[4] = Multiple ascending doses in healthy subjects with elevated LDL-c: PK; assay type: in vivo, human; details: 1, 3, 6 or 10 mg once daily for 14 days
From the text: Secondary Objectives: Evaluate the PK and PD of Compound 1 in healthy subjects with elevated LDL-c following multiple ascending doses of Compound 1.

[5] = Solubilizer compatibility in formulation study; assay type: physicochemical; details: co-formulation
From the text: The level of SLS between 1.5% to 5.0% w/w was investigated.

[6] = PO QD 12 weeks, Compound 2 10 mg/kg alone or plus Compound 1 0.3/2/10 mg/kg (Combo Low/Med/High)
[7] = PO QD 12 weeks, Compound 2 10 mg/kg alone or plus Compound 1 0.3/2/10 mg/kg (Combo-low/med/high)
[8] = PO QD 12 weeks, Compound 1-low, 0.3 mg/kg
[9] = PO QD 12 weeks, Compound 1-med, 2 mg/kg
[10] = PO QD 12 weeks, Compound 1 Low, 0.3 mg/kg
[11] = PO QD 12 weeks, Compound 1 Med, 2 mg/kg

Chain of P-gp (P08183 whole entry): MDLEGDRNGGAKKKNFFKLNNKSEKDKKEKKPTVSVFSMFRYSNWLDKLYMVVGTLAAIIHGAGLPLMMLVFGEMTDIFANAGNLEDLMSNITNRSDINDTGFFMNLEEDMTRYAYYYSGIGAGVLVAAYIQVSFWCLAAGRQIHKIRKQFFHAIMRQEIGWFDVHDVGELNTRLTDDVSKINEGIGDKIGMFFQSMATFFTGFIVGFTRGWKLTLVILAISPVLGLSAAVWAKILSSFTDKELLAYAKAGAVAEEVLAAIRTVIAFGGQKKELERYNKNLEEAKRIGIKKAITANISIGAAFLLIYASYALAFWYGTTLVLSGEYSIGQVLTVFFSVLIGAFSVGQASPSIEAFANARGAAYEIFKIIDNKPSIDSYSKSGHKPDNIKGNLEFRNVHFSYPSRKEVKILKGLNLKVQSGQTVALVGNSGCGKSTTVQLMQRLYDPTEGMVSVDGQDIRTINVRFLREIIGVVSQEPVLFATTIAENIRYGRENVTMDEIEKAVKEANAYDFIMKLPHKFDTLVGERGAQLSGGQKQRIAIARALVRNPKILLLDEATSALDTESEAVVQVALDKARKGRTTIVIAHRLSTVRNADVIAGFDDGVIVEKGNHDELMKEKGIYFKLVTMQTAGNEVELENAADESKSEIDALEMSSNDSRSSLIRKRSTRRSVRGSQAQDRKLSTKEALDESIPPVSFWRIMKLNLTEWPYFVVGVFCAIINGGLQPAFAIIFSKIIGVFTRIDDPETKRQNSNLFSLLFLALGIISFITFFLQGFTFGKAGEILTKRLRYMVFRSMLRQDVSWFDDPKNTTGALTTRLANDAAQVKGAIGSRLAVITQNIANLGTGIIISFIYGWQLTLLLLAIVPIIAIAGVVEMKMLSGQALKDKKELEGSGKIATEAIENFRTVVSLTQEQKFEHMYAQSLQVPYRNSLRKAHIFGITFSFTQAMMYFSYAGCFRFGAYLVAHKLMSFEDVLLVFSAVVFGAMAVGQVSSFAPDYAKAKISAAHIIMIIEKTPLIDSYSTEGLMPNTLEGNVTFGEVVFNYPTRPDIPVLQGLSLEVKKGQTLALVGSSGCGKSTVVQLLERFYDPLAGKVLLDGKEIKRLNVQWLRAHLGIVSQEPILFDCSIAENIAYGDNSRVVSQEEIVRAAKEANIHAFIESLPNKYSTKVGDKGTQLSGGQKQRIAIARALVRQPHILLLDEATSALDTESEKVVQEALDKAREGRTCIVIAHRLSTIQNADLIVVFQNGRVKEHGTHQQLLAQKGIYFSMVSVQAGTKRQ

Which IC50 (P-gp) does the source give for `Cn1cc(C(=O)O)c2ccc(C3CCC(OCc4c(-c5c(Cl)cccc5Cl)noc4C4CC4)CC3)cc21` (stereo not drawn) [Compound 2] here?
The IC50 was 3.92 µM.

And the “plasma triglycerides (TG)” value ([1]; Compound 2 10 mg/kg and combinations)?
The value was “significantly reduced”.

What about the “Histological Steatosis Score: No change, % of mice” value [2, 6] of the same compound?
Its value is 18.75%.

And the “Liver Fibrosis stage: Improving, % of mice” value [2, 6]?
Its value is 6.25%.

What about the “Liver Fibrosis stage: No change, % of mice” value [2, 6] of the same compound?
Its value is 56.25%.

And the “Liver Fibrosis stage: Worsening, % of mice” value [2, 6]?
Its value is 37.5%.

What about the “Lobular Inflammation: Improving, % of mice” value [2, 6] of the same compound?
Its value is 0%.

What about the “Lobular Inflammation: No change, % of mice” value [2, 6] of the same compound?
The value was 68.75%.

And the “Lobular Inflammation: Worsening, % of mice” value [2, 6]?
The value was 31.25%.

What about the “Steatosis Score: Improving 1-pt, % of mice” value [2, 6] of the same compound?
Its value is 81.25%.

And the “Steatosis Score: Improving Total, % of mice” value [2, 6]?
The value was 81% and 81.25%.

And the “Steatosis Score: Improving ≥2-pt, % of mice” value [2, 6]?
The value was 0%.

What about the “NAFLD Activity Score (NAS): No change, % of mice” value [2, 7] of the same compound?
The value was 43.7%.

And the “NAS: Improving 1-pt, % of mice” value [2, 7]?
Its value is 56.25%.

And the “NAS: Improving Total (≥1-pt), % of mice” value [2, 7]?
The value was 56% and 56.25%.

And the “NAS: Improving ≥2-pt, % of mice” value [2, 7]?
Its value is 0%.

What about the “NAS: Worsening ≥1-pt, % of mice” value [2, 7] of the same compound?
Its value is 0%.

And the “α-SMA (IHC)” value ([2]; end of study, Compound 2 10 mg/kg, combinations per Table 16)?
The value was “Numeric reductions”.

And the “Gal-3 expression in the liver (IHC) relative to DIO-GAN vehicle control” value ([2]; end of study, doses per Table 16)?
The value was “lower levels of Gal-3 expression”.

With `N#Cc1nn(-c2cc(Cl)c(Oc3n[nH]c(=O)c4ccccc34)c(Cl)c2)c(=O)[nH]c1=O` [Compound 1, 2-(3,5-dichloro-4-((4-oxo-3,4-dihydrophthalazin-1-yl)oxy)phenyl)-3,5-dioxo-2,3,4,5-tetrahydro-1,2,4-triazine-6-nitrile] as the compound, how does the renal excretion ([3]; all single doses) read?
The renal excretion was “Minimal renal excretion”.

What about the “fe (fraction of dose excreted in urine as unmodified Compound 1)” value ([3]; single 3 mg dose) of the same compound?
The value was 2.95 (62) % dose, urine.

And the “fe (fraction of dose excreted in urine as unmodified Compound 1)” value ([3]; single 10 mg dose)?
Its value is 2.05 (74) % dose, urine.

What about the “fe (fraction of dose excreted in urine as unmodified Compound 1)” value ([3]; single 30 mg dose) of the same compound?
The value was 1.78 (35) % dose, urine.

And the “fe (fraction of dose excreted in urine as unmodified Compound 1)” value ([3]; single 60 mg dose)?
The value was 1.53 (53) % dose, urine.

And the “dose proportionality of exposures (AUC, Cmax)” value ([3]; single doses 3-60 mg)?
The value was “approximately dose-proportional; also recorded: linear and dose-proportional plasma exposures with low variability”.

And the “PK dose proportionality and variability” value [4]?
Its value is “dose-proportional PK with low variability”.

What about the “plasma triglycerides (TG)” value ([1]; Compound 1-high, 10 mg/kg) of the same compound?
The value was “significantly reduced”.

And the “ALT levels relative to DIO-GAN vehicle control” value ([1]; single agent Compound 1 low, med, and high (0.3, 2, 10 mg/kg))?
Its value is “significantly lowered”.

What about the “NAFLD Activity Score (NAS): No change, % of mice” value [2, 8] of the same compound?
The value was 56.25%.

What about the “NAS: Improving 1-pt, % of mice” value [2, 8] of the same compound?
The value was 31.25%.

And the “NAS: Improving Total (≥1-pt), % of mice” value [2, 8]?
Its value is 31% and 31.25%.

And the “NAS: Improving ≥2-pt, % of mice” value [2, 8]?
Its value is 0%.

What about the “NAS: Worsening ≥1-pt, % of mice” value [2, 8] of the same compound?
The value was 12.5%.

What about the “NAS: Improving 1-pt, % of mice” value [2, 9] of the same compound?
The value was 20%.

What about the “NAS: Improving Total (≥1-pt), % of mice” value [2, 9] of the same compound?
The value was 27%.

What about the “NAS: Improving ≥2-pt, % of mice” value [2, 9] of the same compound?
Its value is 7% and 6.7%.

What about the “NAS: Worsening ≥1-pt, % of mice” value [2, 9] of the same compound?
The value was 0%.

What about the “Histological Steatosis Score: No change, % of mice” value [2, 10] of the same compound?
Its value is 68.75%.

What about the “Liver Fibrosis stage: Improving, % of mice” value [2, 10] of the same compound?
Its value is 6.25%.

And the “Liver Fibrosis stage: No change, % of mice” value [2, 10]?
The value was 62.5%.

And the “Lobular Inflammation: Improving, % of mice” value [2, 10]?
The value was 6.25%.

What about the “Lobular Inflammation: Worsening, % of mice” value [2, 10] of the same compound?
The value was 25%.

And the “Steatosis Score: Improving 1-pt, % of mice” value [2, 10]?
The value was 25%.

And the “Steatosis Score: Improving Total, % of mice” value [2, 10]?
The value was 31%.

What about the “Steatosis Score: Improving ≥2-pt, % of mice” value [2, 10] of the same compound?
Its value is 6.25%.

What about the “Liver Fibrosis stage: No change, % of mice” value [2, 11] of the same compound?
Its value is 60%.

What about the “Lobular Inflammation: Improving, % of mice” value [2, 11] of the same compound?
The value was 6.7%.

And the “Lobular Inflammation: Worsening, % of mice” value [2, 11]?
Its value is 20%.

What about the “Steatosis Score: Improving 1-pt, % of mice” value [2, 11] of the same compound?
The value was 40%.

And the “Steatosis Score: Improving Total, % of mice” value [2, 11]?
The value was 47%.

And the “Steatosis Score: Improving ≥2-pt, % of mice” value [2, 11]?
Its value is 6.7%.

What about the “α-SMA (IHC)” value ([2]; end of study, Compound 1-low and Compound 1-med (0.3 and 2 mg/kg)) of the same compound?
The value was “Numeric reductions”.

What about the “compatibility with sodium lauryl sulfate (SLS)” value [5] of the same compound?
The value was “good compatibility; also recorded: minimal or no degradation”.

And the “effect of ionic surfactants (e.g., SLS) on solubility” value [5]?
Its value is “increased the aqueous solubility; also recorded: dramatic enhancement of solubility at all pH levels”.
